In US20220372014A1, “NEUROPROTECTIVE COMPOUNDS AND METHODS OF USE THEREOF” (The Johns Hopkins University, priority 2019, published 2022):

What was measured:
PAAN/MIF = assay: In vitro PAAN/MIF nuclease assay (PS30 or RF substrate, PAGE gel, noncleaved substrate DNA); type: biochemical, human
Description: Nuclease assay. Purified PAAN/MIF protein (4 μM) was incubated with compounds (10 μM) in the nuclease buffer [10 mM Tris-C1 (pH 7.0) and 10 mM MgCl2] for 20 m on ice. Then samples were added with 1 μM of PAAN/MIF substrate (PS30 or RF) and incubated for 1 h at 37° C. The reaction was terminated with loading buffer containing 10 mM EDTA and separated on 15% TBE-urea polyacrylamide (PAGE) gel or 20% TBE PAGE gel.
Purification of PAAN/MIF recombinant proteins. Human PAAN/MIF (NM_002415) cDNA and its variants were subcloned into pGEX-6β-1 vector (GE Healthcare) and mutants were generated using a QuikChange site-directed mutagenesis kit (Stratagene). The sequences were confirmed by automated DNA sequencing. The protein was expressed and purified from Escherichia coli by glutathione sepharose (GE Healthcare). The GST tag was subsequently proteolytically removed. GST protein was used as a negative control in the nuclease assay and PAAN/MIF proteins purified by FPLC using Superdex 200 10/300GL column (GE Healthcare, Life Sciences) were also used in the nuclease assays.

pS6 kinase activity = assay: Immunoblot of pS6K, pS6 and p4E-BP1 levels in SH-SY5Y cells; type: cell-based; settings: 0.5 or 1 μM, 3 h
Text: FIGS. 14A-14G show the characterization of compound 121. […] Bars represent means±s.e.m. ***P<0.0005, two-way ANOVA followed by Tukey's post hoc test (n=4). […] Bars represent mean±s.e.m. ***P<0.0005, two-way ANOVA followed by Tukey's post hoc test (n=4). […] Bars represent means±s.e.m. **P<0.005, ***P<0.0005, one-way ANOVA followed by Tukey's post hoc test (n=3). […] Bar represent mean±s.e.m. ***P<0.0005, one-way ANOVA followed by Tukey's post hoc test (n=3). […] Quantification of inhibition of PARP-1 activity by compound 56, compound 121 and ABT-888 is shown. Graphs represent mean±s.e.m. ***P<0.0005, two-way ANOVA followed by Tukey's post hoc test (n=3). FIGS. 14F and 14G show Alamar blue cell viability assay from SH-SY5Y cells pre-incubated with either compound 56 or 121 in response to (14F) 0.5 μM staurosporine (STS) or (14G) from HT 22 cells incubated with 1 ng/ml of TNF-α with 50 μM z-VAD. Bars represent mean±s.e.m. ***P<0.0005, two-way ANOVA followed by Tukey's post hoc test (n=5).
Tissue lysate preparation and western blot analysis. […] Protein concentrations were determined using the BCA assay (Pierce) and samples were separated using SDS polyacrylamide gels and transferred onto nitrocellulose membranes. […]

calcineurin = assay: Calcineurin cellular activity assay in SH-SY5Y cells; type: cell-based; settings: 1 μM, 6 h
Description: Calcineurin activity assay. Calcineurin activity was measured using a calcineurin cellular activity assay (Enzo Life Sciences) according to manufacturer's protocols. See Sangadala et al. (2019) Int. J. Mol. Sci. 20:1900. SH-SY5Y cells treated with FK506 or compound 121 were placed in a desalting column to remove excess phosphates and nucleotides. Total phosphate activity was determined in the samples by incubating with a calcineurin-specific substrate supplied in the manufacturer and measured by monitoring absorbance at 620 nm. Calcineurin activity was calculated as the difference between total phosphatase activity minus the phosphatase activity in the presence of 10 mM EGTA that blocks calcineurin activity.

[1] = system: α-syn PFF injected WT mice; assay: Intrastriatal α-syn PFF mouse model (TH/Nissl stereology, HPLC of dopamine and DOPAC, pole test, grip strength test, pulsed-field gel, weight)
[2] = both doses, 5 and 15 mg/kg/day oral, 5 months

COc1ccc(CC[C@H]2OC(=O)[C@@H]3CCCCN3C(=O)C(=O)C(C)(C)COC(=O)C=CCCN(C)C(=O)[C@@H]3CCCN3C(=O)[C@H](COC(C)(C)C)N(C)C(=O)C(c3ccccc3)NC(=O)[C@H](C)N(C)C(=O)COc3cc(F)cc2c3)cc1OC (mixture of isomers) [compound 121]
nuclease activity of MIF 66-67A or MIF 97-99A mutants (PAAN/MIF; mutants K66A and I67A, N97A, Y98A and Y99A): remained sensitive to inhibition | nuclease activity of PAAN/MIF 60-63A and PAAN/MIF N72A mutants (PAAN/MIF; mutants S60A, L61A, H62A and S63A (MIF 60-63A), N72A): became resistant | rapamycin sensitive pS6 kinase activity (pS6 kinase activity): failed to inhibit | FK506 sensitive calcineurin activity (calcineurin): failed to inhibit | tolerability (toxicity, weight) ([1]; 5 and 15 mg/kg/day oral, 5 months): no overt toxicity or weight loss | behavioral deficits (pole test, grip strength test) [1, 2]: prevents | loss of DA neurons (TH and Nissl stereology, TH immunoblot, HPLC of DA and DOPAC) [1, 2]: prevents the loss of DA neurons | α-syn PFF-induced large scale genomic DNA cleavage in vivo ([1]; pulse gel electrophoresis): significantly attenuated
